Experimental data from patent publication US7345096B2, “Use of norepinephrine reuptake modulators for preventing and treating vasomotor symptoms” (Wyeth, priority 2002, dated 2008).

How the values were obtained:
[1] = test system: naloxone-induced flush (tail skin temperature); experiment: Morphine-dependent rat model of hot flush (MD model); settings: for effect on naloxone-induced flush at maximal flush: 1 hour prior to naloxone, 15 minutes post-naloxone; for ED50: Rattus norvegicus, read-out: ED50 value, abatement of naloxone-induced flush
Protocol: (§1) Dosinq: All doses were prepared based on mg/kg.
(§2) Animals: Ovariectomized Sprague-Dawley rats (180-220 g) were obtained from a commercial vendor (Taconic, Germantown, N.Y.) and individually housed under 12 hours light/dark cycle in a room maintained at 25° C. Animals were provided with standard rat chow and water ad libitum.
Morphine-dependent model: Ovariectomized rats were injected once daily for 8-9 days with vehicle to minimize stress responses and then administered compound(s) on test day. On day 4 of dosing, morphine dependence was induced by sc implantation of two slow-release morphine pellets (75 mg/pellet) in the dorsal scapular region. […] Four to six days after implantation, morphine withdrawal was induced with an opioid antagonist (naloxone) that causes a transient increase in TST. […] Rats were mildly sedated with ketamine and a thermistor connected to a MacLab data acquisition system was taped to the base of the tail. Tail skin temperature was then monitored continuously for 35 minutes to establish a baseline temperature. Naloxone was subsequently administered and TST was measured for an additional 35 to 60 minutes (total recording time 70 to 95 minutes).
Statistical analysis: To analyze changes in TST induced by naloxone in morphine-dependent rats, all data were analyzed using a two factor repeated measure ANOVA for “treatment” and “time.” The model was fit to test whether there were significant differences in the responses between treatment groups. Naloxone administration is designated as time zero and data is then analyzed at 5 minute intervals. The first three readings were averaged and used as baseline TST scores. All data were analyzed as ΔTST (TST for each time point—baseline). Multiple comparisons (LSD p-values) among the treatment groups at each time point were used for the analysis. Efficacy of hot flush abatement was determined by evaluating statistical differences at the peak response time of 15 minutes post-naloxone, when the maximal change in TST is observed. A customized SAS-excel (SAS Institute, Cary, N.C.) application was used applying a four parameter logistic model to determine ED50 values. A logistic dose transformation was performed on ΔTST. Maximum flush (ΔTST at 15 minutes post-naloxone) was used in the analysis and the minimum was locked at zero.

[2] = test system: tail skin temperature during active (dark) phase; experiment: OVX-induced thermoregulatory dysfunction telemetry model
Protocol: as §1, §2
A temperature and physical activity transmitter (PhysioTel TA10TA-F40, Data Sciences International) was implanted subcutaneously in the dorsal scapular region and the tip of the temperature probe was tunneled subcutaneously 2.5 cm beyond the base of the tail. After a 7-day recovery period, TST readings were continuously recorded for the remainder of the study. Tail skin temperature readings were collected from each animal every 5 minutes with values obtained over a 10 second sampling period. The day before test day, an average baseline TST value was calculated for each animal by averaging temperature readings recorded during the 12 hours active (dark) phase. In these studies, animals were dosed approximately 1 hour prior to the onset of dark cycle.
Evaluation of a compound's ability to restore normal lowering of TST in the telemetry model was analyzed using hourly TST values calculated for each animal by averaging the 12 temperature readings obtained every 5 minutes over that recording time. To analyze ΔTST in the telemetry model, a two factors repeated measure ANOVA was performed. The model used for analysis was ΔTST=GRP (group)+HR (hours)+GRP*HR+BASELINE. Thus, the reported least squares means are the expected mean values as if both groups had the same baseline value. Post-hoc tests of hourly GRP*HR samples are t-tests of the difference between groups for each hour. To be conservative, a result was not considered significant unless the p-value was <0.025. All analyses were performed using SAS PROC MIXED (SAS, Carey, N.C.).

## COc1ccc(C(CN(C)C)C2(O)CCCCC2)cc1 (centres unmarked) [venlafaxine]
[1]; rat, in vivo
  effect on elevated naloxone-dependent hot flush induced by atipamezole: able to alleviate
[2]; 15 mg/kg sc
  changes in TST over time: significantly and transiently decreased TST during the active phase

## CCC1(c2cnc[nH]2)Cc2ccccc2C1 [atipamezole]
[1]; atipamezole 0.3 mg/kg sc alone, 55 minutes prior to naloxone
  changes in TST after naloxone vs vehicle: not significantly different from vehicle treated rats

## CN(C)CC(c1cccc(C(F)(F)F)c1)C1(O)CCCCC1 (centres unmarked) [WY-867]
[1]; 30 mg/kg intraperitoneally
  effect on naloxone-induced flush at maximal flush: abated the naloxone-induced flush

## CN(C)CC(c1ccc(O)cc1)C1(O)CCCCC1 (centres unmarked) [DVS-233, O-desmethyl-venlafaxine]
[1]; sc
  ED50: 30 mg/kg
[2]; 60 mg/kg sc
  changes in TST over time: significantly and transiently decreases TST during the active phase

## CNCCC(Oc1ccc(C(F)(F)F)cc1)c1ccccc1 (centres unmarked) [fluoxetine]
[1]; fluoxetine 10 mg/kg sc alone
  effect on naloxone-induced flush: did not abate the naloxone-induced flush

## CNCCCN1c2ccccc2CCc2ccccc21 [desipramine]
[1]; 1 mg/kg sc, 40 minutes prior to naloxone, alone
  abatement of naloxone-induced flush: approximately 50%
[1]; 3 mg/kg desipramine co-administered with 10 mg/kg dose of SRI
  abatement of hot flush: 100%
[1]; sc
  ED50: 1 mg/kg
[1]; dose response, sc
  effect on naloxone-induced flush at maximal flush: dose-dependently abates the naloxone-induced flush
[1]; low dose
  reduction of TST compared to vehicle treated rats in naloxone-induced hot flush: 50%
[2]; 10 mg/kg sc
  changes in TST over time: significantly decreases TST over the entire length of the active phase

## CN1CCN(CC(c2cccc(Cl)c2)C2(O)CCCCC2)CC1 (racemic) [1-[1-(3-chlorophenyl)-2-(4-methyl-1-piperazinyl)ethyl]cyclohexanol]
[1]; dose response, sc
  changes in TST over time after naloxone: dose-dependently abate the naloxone-induced flush

## CN(C)CC(c1cccc(Cl)c1)C1(O)CCCCC1 (centres unmarked) [WY-781]
[1]; 30 mg/kg intraperitoneally
  effect on naloxone-induced flush at maximal flush: abated the naloxone-induced flush

## CCOc1ccccc1OC(c1ccccc1)C1CNCCO1 (centres unmarked) [reboxetine]
[1]; dose response, sc
  changes in TST over time after naloxone: dose-dependently abate the naloxone-induced flush
  effect on naloxone-induced flush at maximal flush: dose-dependently abates the naloxone-induced flush
